# Reference: PMC12718081 (ACS Infectious Diseases, 2025)
# Key:
# Format in all cases: cell-based, Schistosoma mansoni
# S. mansoni schistosomula = assay: Roboworm high-content screening assay on schistosomula (motility and phenotype scores); details: 72 h
# Procedure: All PZQ derivatives were synthesized in the racemic form and evaluated as such. The compounds were initially screened at 10 μM against S. mansoni schistosomula using the Roboworm high-content screening assay , and were declared hits or nonhits based on their effect on parasites’ motility and phenotype scores after 72 h of incubation. As none of the compounds were considered hits at this concentration, we performed a titration from 6.25 to 50 μM (Figure S27).
# DMSO was included as a negative control. Compounds were considered hits if both their motility and phenotype scores were lower than −0.35 and −0.15, respectively (region delimited by the dashed lines). In red, PZQ analogues selected for further analysis.
# For the collection of schistosomula, B. glabrata snails infected with S. mansoni were shed for 2 h under light at 26 °C. Cercariae were collected, mechanically transformed into schistosomula as previously described.
# DMSO (0.625%, v/v) was included as a negative control. Z′ values for the assay were calculated to be 0.542 for phenotype and 0.361 for motility. […]
# (§1) Auranofin (AUR) was included at 10 µM as positive control. DMSO was included as a negative control. Compounds were considered hits if both their motility and phenotype scores were lower than -0.35 and -0.15, respectively (region delimited by the […]
# Sm.TRPMPZQ Y1392A mutant = assay: Ca2+ reporter activation assay, Sm.TRPMPZQ point mutant Y1392A; details: 100 μM
# Procedure: This trend likely indicates a similar binding mode.
# The colored cells represent the range of EC50 values for each compound based on their ability to activate the channel.
# (§2) The Ca^2+ reporter assay was performed using a Fluorescence Imaging Plate Reader (FLIPR) system, as described in the Supporting Information.
# (§3) Adult worm ex-vivo high-content assay
# (§4) “Area” and “False Negative Rate” from the MeasureObjectSizeShape and MeasureObjectOverlap modules, respectively. These measurements were then modeled by a multilevel generalized linear statistical model. The effects of the experimental treatments on […]
# (§5) The half-maximal inhibitory
# (§6) Windows (GraphPad Software, Boston, MA, USA; www.graphpad.com). […]
# (§7) with DMSO as a negative control. […]
# (§8) reader. […] The fluorescence
# (§9) Untransfected HEK293 cells were used as a control.
# (§10) 10% fetal bovine serum (FBS). […]
# (§11) atmosphere containing 5% CO₂. Following incubation, the growth medium was removed and […]
# buffer containing 2.5 mM probenecid in HBSS (with Ca²⁺ and Mg²⁺), 20 mM HEPES, 0.3% BSA (Sigma, A7030), and 0.03% L-ascorbic acid (Sigma). Cells were incubated for 40 minutes at 37 °C and subsequently for 20 minutes at room temperature. […]
# (§12) instrument (Molecular Devices). Baseline fluorescence was recorded for 20 seconds, followed by the addition of 5 µL of each drug solution, after which fluorescence was measured continuously for 250 seconds. […]
# Sm.TRPMPZQ = assay: Ca2+ reporter assay in antagonist mode (block of PZQ activation of Sm.TRPMPZQ); details: preincubation 1 nM-100 μM for 10 min, data not shown
# Procedure: as §2, §3, §4, §5, §6, §7, §8, §9, §10, §11
# buffer containing 2.5 mM probenecid in HBSS (with Ca²⁺ and Mg²⁺), 20 mM HEPES, 0.3% BSA (Sigma, A7030), and 0.03% L-ascorbic acid (Sigma). Cells were incubated for 40 minutes at 37 °C and subsequently for 20 minutes at room temperature. A total of seven PZQ derivatives were tested, using racemic PZQ included as a positive control on each assay plate. Drug dilutions were prepared in assay buffer without dye and probenecid and dispensed into separate flat-bottom 384-well plates. Calcium flux measurements were performed at room temperature using a […]
# as §12
# as §1, with “schistosomula after 72h of incubation using the Roboworm high-content screening assay. Auranofin” for “Auranofin”
# (1 picture or pasted object on this page, not shown here)
smiles,measurement,setting,value
[N-]=[N+]=Nc1ccc2c(c1)C1CN(C(=O)C3CCCCC3)CC(=O)N1CC2 (stereo not drawn) [Compound 4],hit classification (motility and phenotype scores),S. mansoni schistosomula; 12.5 μM,borderline
same,hit classification (motility and phenotype scores),S. mansoni schistosomula; 25 μM,declared a hit
same,activity at Sm.TRPMPZQ carrying the Y1392A mutation,Sm.TRPMPZQ Y1392A mutant,retained residual activity
O=C(C1CCCCC1)N1CC(=O)N2CCc3ccc(-n4cc(C5=CCCCC5)nn4)cc3C2C1 (stereo not drawn) [Compound 5b],block of PZQ activation of Sm.TRPMPZQ (antagonist mode),Sm.TRPMPZQ,failed to impact subsequent responses to PZQ
CCCc1cn(-c2ccc3c(c2)C2CN(C(=O)C4CCCCC4)CC(=O)N2CC3)nn1 (stereo not drawn) [Compound 5e],effect on parasites motility,S. mansoni schistosomula; 50 μM,significant effect
same,hit classification (motility and phenotype scores),"S. mansoni schistosomula; 50 μM, hit if motility < -0.35 and phenotype < -0.15",did not change their phenotype score enough to be considered a hit
